Test results taken from patent US7775469B2, “Purposeful movement of human migratory cells away from an agent source” (The General Hospital Corporation, priority 1999, dated 2010).

How the values were obtained:
CD8+CD45RA+ T-cells = assay: Transwell transmigration assay with recombinant HIV-1IIIB gp120 and inhibitors; assay type: cell-based, human; conditions: cells pretreated with inhibitor
Procedure: Purified T-cell and thymocyte subpopulations (5×10^4 cells) were added to the upper chamber of each well in a total volume of 150 μl of IMDM alone.
(§1) Cells were pretreated with anti-CXCR-4 (Pharmingen, San Diego, Calif.) at 20 μg/ml for 30 minutes at room temperature, pertussis toxin (PTX) (100 ng/ml for 1 hour at 37° C.), genistein (1 μg/ml for 20 minutes at 37° C.), herbimycin ([…] for 20 minutes 37° C.), wortmannin (1 μM for 20 minutes at 37° C.), 8-Br-cAMP (100 μM for 15 minutes at room temperature) or 8-Br-cGMP (100 μM for 15 minutes at room temperature) (Sigma Chemical Company, St Louis, Mo.) prior to their addition to the upper chambers of the transwells in selected experiments. Transwells prepared in this way were incubated for 3 hours at 37° C./5% C02 incubator. Cells were harvested from the lower chamber after 3 hours and cell counts performed using a hemocytometer.

Jurkat T-cells = assay: Transwell transmigration of Jurkat T-cells to HepG2CM fractions, with inhibitors; assay type: cell-based, human; conditions: Jurkat cells pretreated, 100 μM for 15 minutes
Procedure: The HepG2 cell line (derived from a human hepatocarcinoma-ATCC no:HB-8065, ATCC, Manassas, Va.) was grown to confluency in MEM+10% heat inactivated fetal calf serum+penicillin/streptomycin+L-glutamine. Confluent HepG2 cells were then transferred into serum free medium for 48 hours and the serum free conditioned medium (HepG2CM) was harvested from these cultures. HepG2CM was filtered through a 0.4 μm filter prior to use in transmigration assays or in the Fugetaxin separation system detailed below.
200 ml of HepG2CM were loaded onto a 5-ml HiTrap heparin column (Pharmacia) equilibrated with 10 mM Na phosphate, pH 7. The column was eluted with step increasing concentration of NaCl. […] A cation exchange column, HiTrap Sp Sepharose (Pharmacia), was used as a second step of purification. The active fraction from the Heparin column was dialysized against 50 mM MES, pH6.4 and loaded onto a 1-ml HiTrap Sp column equilibrated with 50 mM MES, pH6.4. The column was then eluted with a linear gradient of NaCl concentration. • 3. […] The active fraction eluted from the HiTrap Sp column in the previous step was then dialysized with 20 mM Tris, pH8.0 and further fractionated using a MonoQ HR5/5 column (Pharmacia). The column was then eluted with a linear gradient of NaCl concentration.
We examined the biology of the fugetactic activity of Fraction 18 with in vitro and in vivo transmigration assay systems. […]

[1] = system: T-cell subpopulations moving toward or away from SDF-1α; assay: Inhibitor pretreatment of T-cells in SDF-1α transwell transmigration assay; assay type: cell-based, human; conditions: cells pretreated with inhibitor; for effect on chemotaxis to SDF-1α: peak chemotaxis at 100 ng/ml SDF-1α; for effect on fugetaxis from SDF-1α: peak fugetaxis at 1 or 10 μg/ml SDF-1α
Procedure: (§2) Three chemotaxis assays were used in this study. First, quantitative chemotaxis transmigration assays were performed using a transwell system (Corning Inc., NY) (6.5 mm diameter, 5 μm pore size, polycarbonate membrane) as previously described^13. Purified T-cell and thymocyte subpopulations (5×10^4 cells) were added to the upper chamber of each well in a total volume of 150 μl of IMDM alone. […] Cells were pretreated with pertussis toxin (PTX) 100 ng/ml for 1 hour, genistein (1 μg/ml for 20 minutes), herbimycin (1 μM for 20 minutes) or wortmannin (1 μM for 20 minutes) (Sigma Chemical Company, St Louis, Mo.) in a tissue culture incubator at 37° C. and 5% CO2 prior to their addition to the upper chambers of the transwells in selected experiments.
(§3) Transwells prepared in this way were incubated for 3 hours at 37° C., 5% CO2 incubator. Cells were harvested from the lower chamber after 3 hours and cell counts, immunophenotype and CXCR-4 chemokine receptor expression determined.
as §1

[2] = system: TN, DP and SP subpopulations of fetal thymocytes; assay: Transwell transmigration of fetal thymocytes to SDF-1α; assay type: cell-based, human
From the text: (§4) Human fetal thymi and peripheral blood samples were obtained from 16 to 22 week abortuses according to Institutional Review Board approved guidelines. Thymi were physically disaggregated and mononuclear cell suspensions generated. Thymocytes were stained with CD8 (FITC), CD3 (PE) and CD4 (APC) and sorted into purified subpopulations of triple negative immature thymocytes (TN) (CD3^−, CD4^−, CD8^−) and mature double positive (DP) (CD4^+CD8^+) and single positive (SP) thymocytes (CD3^+CD4^+ or CD3^+CD8^+) by cell sorting. Fetal blood mononuclear cells (FBMC) were prepared from fetal blood using Ficoll-Hypaque as above. FBMC were labeled with CD8 (FITC), CD3 (PE), CD4 (APC) and anti-CD45RA (FITC). Purified populations of CD4^+CD45RA^+ and CD8^+CD45RA^+ T-cells were sorted cultured overnight in serum free Iscoves modified medium prior to use in chemotaxis assays.
(§5) Three chemotaxis assays were used in this study. First, quantitative chemotaxis transmigration assays were performed using a transwell system (Corning Inc., NY) (6.5 mm diameter, 5 μm pore size, polycarbonate membrane) as previously described^13. […]
as §3

[3] = system: adult peripheral blood T-cell subpopulations; assay: Transwell transmigration assay with SDF-1α, adult peripheral blood T-cells; assay type: cell-based, human; conditions: for T-cells transmigrating in response to a positive gradient of SDF-1α: SDF-1α 100 ng/ml
From the text: Peripheral blood was obtained from 12 healthy donors (age 25-40 years, median age 31). Peripheral blood mononuclear cells (PBMC) were obtained from peripheral blood using Ficoll-Hypaque. PBMC were stained with anti-CD4 (PE), anti-CD8 (PE), anti-CD45RA (FITC), anti-CD45RO (FITC) (Becton-Dickinson, San Jose, Calif.). The CD4^+CD45RA^+, CD4^+CD45RO^+ and CD8^+CD45RA^+ or CD8^+CD45RO^+ subpopulations of peripheral blood cells were sorted using a FACS vantage sorter (Becton-Dickinson, San Jose, Calif.). […] Sorted adult peripheral blood T-cell subpopulations were cultured overnight in serum-free Iscoves modified medium (GIBCO BRL, Gaithersburg, Md.), prior to their use in chemotaxis assays.
as §2, §3

[4] = system: peripheral T-cell subpopulations; assay: Semi-quantitative migration assay in methylcellulose, time lapse videomicroscopy; assay type: cell-based, human; conditions: SDF-1α loaded at fixed position, 10 μg/ml or 100 ng/ml
Procedure: In the third semi-quantitative migration assay, T-cell subpopulations (1×10^5 cells) were mixed with 0.5 ml of 0.5% methylcellulose (Stem Cell Technologies, Vancouver, BC) in sterile medium and plated in a 24 well plate.
[…]
To further validate the process of concentration dependent directional movement, a third transmigration assay was used. […] The movement of a gradient across the methylcellulose was documented in independent experiments by monitoring a dye front through the culture; a process not achieving equilibrium over the duration of our incubations.

[5] = system: CD4+CD45RA+ and CD8+CD45RA+ fetal blood T-cells; assay: Transwell transmigration of fetal blood T-cells to SDF-1α; assay type: cell-based, human
From the text: as §4, §5, §3

[6] = system: adult peripheral blood T-cell subpopulations; assay: Semi-quantitative transmigration assay with tissue culture insert as SDF-1α reservoir; assay type: cell-based, human
Procedure: The second semi-quantitative transmigration assay involved the use of a tissue culture insert (6.5 mm diameter, 0.45 μm pore size, polycarbonate membrane) (Millipore, Bedford Mass.). Adult peripheral blood T-cell subpopulations (1×10^5 cells) were plated into the wells of a 12-well tissue-culture dish in serum-free Iscove's medium. The tissue-culture plate was then incubated at 37° C. for 1 hour to allow the cells to settle evenly over the base of the well. […] The tissue culture insert was gently placed in the center of the well of the 12-well tissue-culture plate leaving a gap of 0.3 cm between the edge of the insert and the edge of the well of the tissue culture plate. The well with transwell insert was incubated for up to 18 hours at 37° C. on the heated stage of a microscope and viewed by time lapse videomicroscopy recording at 120 frames per hour or by Polaroid still photography. Maintenance of a gradient was assessed by loading of methylene blue into the insert and observing a preserved gradient of color over the incubation period.

C57/B6 mice = assay: T-cell infiltration into the site of a secondary immune response (Ova challenge, peritoneal lavage) after SDF-1; assay type: in vivo, mouse; conditions: 24 hours
Procedure: C57/B6 mice (Jackson Laboratories, ME) were obtained and primed subcutaneously with 100 μg chicken ovalbumin (Sigma) containing less than 0.01% LPS by the limulus assay and dissolved in 100 μl of Complete Freund's Adjuvant (CFA) (Sigma). Three days ova-primed mice were challenged by intraperitoneal (IP) injection with 100 μg of ovalbumin (Ova) dissolved in 250 μl of ddH20. […] These mice were then euthanized 24 hours following the second IP injection and peritoneal lavage with 5 mls of PBS performed with direct visualization of the peritoneal sac and its contents in order to avoid peripheral blood contamination. Peritoneal fluid cells harvested in this way contained <0.1% red blood cells. Three groups of control mice were used. In the first, C57/B6 mice were euthanized prior to Ova-priming and a peritoneal lavage performed. The second group of control mice were primed subcutaneously and challenged with Ova intraperitoneally as above and then euthanized 24 hours later. […]
Cells harvested from the peritoneal fluid were counted with a hemocytometer and their viability determined by Trypan blue exclusion and the total viable nucleated cell count per ml of peritoneal fluid was determined. […] The proportion of T-cells of each subpopulation (CD3^+, CD3^+CD4^+, CD3^+CD8^+) was determined as a percentage of the total nucleated cell fraction in the peritoneal fluid. […]

[7] = system: adult peripheral blood T-cell subpopulations; conditions: reported in the literature; cited from earlier work
[8] = system: human T-cell subpopulations; assay: Transmigration of human T-cells to KSHV-infected cell supernatants and chemokines; assay type: cell-based
From the text: We examined the chemotactic and fugetactic responses of human T-cell subpopulations and KSHV specific CTL clones to the KSHV proteins vMIP-I and vMIP-II and serum free supernatants from two cell-lines well known in the art that are chronically infected by KSHV and derived from human tumors, lines BCBL-1 and VG-1. BCBL-1 is a B cell line derived from a body cavity-based B lymphoma that is latently infected with HHV-8/KSHV; no EBV DNA is present in this line (Renne, R., W. et al., Nat. Med., 1996, 2:342-346).
FIG. 7: Transmigration of human T-cells to supernatants derived from cell lines which are chronically infected with KSHV (FIG. 7A: BCBL-1, and FIG. 7B:VG-1).
Fugetactic (black bars) and chemotactic (striped bars) migratory responses are shown.

Nc1ncnc2c1nc(Br)n2[C@@H]1O[C@@H]2COP(=O)(O)O[C@H]2[C@H]1O [8-Br-cAMP]
effect on movement away from HIV-1IIIB gp120 (CD8+CD45RA+ T-cells): differentially sensitive to inhibition
inhibition of fugetaxis induced by Fraction 18 (Jurkat T-cells): 95%
effect on chemotaxis to SDF-1α [1]: not chemotaxis
effect on fugetaxis from SDF-1α [1]: inhibited fugetaxis

Nc1nc2c(nc(Br)n2[C@@H]2O[C@@H]3COP(=O)(O)O[C@H]3[C@H]2O)c(=O)[nH]1 [8-Br-cGMP]
inhibition of fugetaxis induced by Fraction 18 (Jurkat T-cells): did not significantly inhibit fugetaxis

O=c1c(-c2ccc(O)cc2)coc2cc(O)cc(O)c12 [genistein]
effect on chemotaxis to SDF-1α [1]: inhibited chemotaxis
effect on fugetaxis from SDF-1α [1]: minimal effect on fugetaxis

CO[C@H]1[C@@H](OC)C[C@H](C)[C@@H](OC)C2=CC(=O)C=C(NC(=O)/C(C)=C/C=C\[C@H](OC)[C@@H](OC(N)=O)/C(C)=C/[C@@H]1C)C2=O [herbimycin]
effect on chemotaxis to SDF-1α [1]: inhibited chemotaxis
effect on fugetaxis from SDF-1α [1]: minimal effect on fugetaxis

SDF-1α
cell movement in response to SDF-1α ([2]; TN, DP, SP fetal thymocytes and fetal blood T-cells): minimal cell movement in response to SDF-1α except in the most immature TN subset
fugetaxis above background chemokinesis ([2]; thymocyte subpopulations, even at 1 μg/ml and 10 μg/ml): In no thymocyte subpopulation was fugetaxis noted above background chemokinesis levels
concentration of maximal fugetaxis ([3]; CD4+CD45RA+ cells): 10 µg/mL
T-cells transmigrating in response to a positive gradient of SDF-1α ([3]; CD4+CD45RA+ cells): 85%
T-cells transmigrating in response to a positive gradient of SDF-1α ([3]; CD4+CD45RO+ cells): 79%
T-cells transmigrating in response to a positive gradient of SDF-1α ([3]; CD8+CD45RA+ cells): 97%
T-cells transmigrating in response to a positive gradient of SDF-1α ([3]; CD8+CD45RO+ cells): 51%
concentration of maximal fugetaxis ([3]; CD8+CD45RO+, CD8+CD45RA+ and CD4+CD45RO+ cells): 1 µg/mL
concentration of peak chemoattractant activities ([3]; all four adult T-cell subpopulations): 100 ng/mL
decline of chemotaxis toward SDF-1α ([3]; concentration increased from 100 ng/ml to 10 μg/ml, all cells): ≤ 27 fold
concentration at which agent acts as potent fugetactic agent to immune cells ([3]; mature T cells): higher than 200 ng/ml
direction of T-cell movement in methylcellulose [4]: away from high concentrations of SDF-1α and towards low concentrations
concentration of maximal chemotactic responses [5]: 100 ng/mL
direction of T-cell migration relative to insert ([6]; insert contained 10 μg/ml SDF-1α): migrate towards the source of SDF-1α and a second population to migrate away
direction of T-cell migration relative to insert ([6]; insert contained SDF-1α at 100 ng/ml): Only movement toward the insert was seen
T cell accumulation at site of Ova challenge (C57/B6 mice; SDF-1 low dose (100 ng/ml) IP, vs sham or PBS): No significant differences
T cell infiltration at site of Ova challenge (C57/B6 mice; high dose SDF-1 (5 μg/ml) IP, p=0.02 vs controls): blunted significantly below that of controls
concentration at which reported as lymphocyte chemoattractant [7]: lower than 100 ng/ml

B1: MIP-1α: human chemokine (protein, UniProt P10147 24-92, looked up)
C-C motif chemokine 3: SLAADTPTACCFSYTSRQIPQNFIADYFETSSQCSKPGVIFLTKRSRQVCADPSEEWVQKYVSDLELSA
chemotactic response of T-cell subsets ([8]; 10 ng/ml): clear chemotactic response

B2: vMIP-II: KSHV-encoded human chemokine homologue (protein, UniProt Q98157 21-94, looked up)
Viral macrophage inflammatory …: GDTLGASWHRPDKCCLGYQKRPLPQVLLSSWYPTSQLCSKPGVIFLTKRGRQVCADKSKDWVKKLMQQLPVTAR
fugetactic response of T-cells ([8]; 100 ng/ml): not
